Reference: article PMC8151655, “Some Dietary Phenolic Compounds Can Activate Thyroid Peroxidase and Inhibit Lipoxygenase-Preliminary Study in the Model Systems” (International Journal of Molecular Sciences, 2021)

T1: thyroid peroxidase (TPO) (Sus scrofa, UniProt P09933)
T1 construct: The frozen thyroid gland was minced with a fork; from tissue; host or cells: porcine thyroid gland (homogenate, centrifuged, salted out to 60%)
T1 sequence (P09933 15-926): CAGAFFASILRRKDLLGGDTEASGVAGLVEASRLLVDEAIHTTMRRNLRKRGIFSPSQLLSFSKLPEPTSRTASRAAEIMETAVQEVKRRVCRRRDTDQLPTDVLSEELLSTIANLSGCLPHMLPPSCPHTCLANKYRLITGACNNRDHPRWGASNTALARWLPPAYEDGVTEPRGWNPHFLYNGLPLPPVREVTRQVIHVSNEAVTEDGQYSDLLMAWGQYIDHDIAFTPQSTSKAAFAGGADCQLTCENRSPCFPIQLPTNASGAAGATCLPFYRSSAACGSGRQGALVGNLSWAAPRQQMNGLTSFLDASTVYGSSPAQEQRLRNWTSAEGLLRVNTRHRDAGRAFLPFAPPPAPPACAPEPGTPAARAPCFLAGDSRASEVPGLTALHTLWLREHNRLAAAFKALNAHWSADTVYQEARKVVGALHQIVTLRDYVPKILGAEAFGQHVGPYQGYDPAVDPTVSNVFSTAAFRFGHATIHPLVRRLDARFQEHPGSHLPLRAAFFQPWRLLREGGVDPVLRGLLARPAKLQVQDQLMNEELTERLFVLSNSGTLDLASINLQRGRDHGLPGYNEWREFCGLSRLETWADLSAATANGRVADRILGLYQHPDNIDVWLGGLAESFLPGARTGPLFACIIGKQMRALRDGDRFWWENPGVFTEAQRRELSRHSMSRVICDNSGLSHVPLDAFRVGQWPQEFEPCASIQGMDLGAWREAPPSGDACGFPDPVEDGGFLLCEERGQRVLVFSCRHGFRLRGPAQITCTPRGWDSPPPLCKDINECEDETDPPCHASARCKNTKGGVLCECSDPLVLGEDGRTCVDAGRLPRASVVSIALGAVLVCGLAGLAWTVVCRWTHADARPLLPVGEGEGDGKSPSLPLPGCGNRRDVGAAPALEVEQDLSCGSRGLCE

T2: soybean lipoxygenase type 1-B (LOX) (Glycine max, UniProt P08170)
T2 construct: purchased Sigma-Aldrich Company (Poznan, Poland)
T2 sequence (P08170 1-839): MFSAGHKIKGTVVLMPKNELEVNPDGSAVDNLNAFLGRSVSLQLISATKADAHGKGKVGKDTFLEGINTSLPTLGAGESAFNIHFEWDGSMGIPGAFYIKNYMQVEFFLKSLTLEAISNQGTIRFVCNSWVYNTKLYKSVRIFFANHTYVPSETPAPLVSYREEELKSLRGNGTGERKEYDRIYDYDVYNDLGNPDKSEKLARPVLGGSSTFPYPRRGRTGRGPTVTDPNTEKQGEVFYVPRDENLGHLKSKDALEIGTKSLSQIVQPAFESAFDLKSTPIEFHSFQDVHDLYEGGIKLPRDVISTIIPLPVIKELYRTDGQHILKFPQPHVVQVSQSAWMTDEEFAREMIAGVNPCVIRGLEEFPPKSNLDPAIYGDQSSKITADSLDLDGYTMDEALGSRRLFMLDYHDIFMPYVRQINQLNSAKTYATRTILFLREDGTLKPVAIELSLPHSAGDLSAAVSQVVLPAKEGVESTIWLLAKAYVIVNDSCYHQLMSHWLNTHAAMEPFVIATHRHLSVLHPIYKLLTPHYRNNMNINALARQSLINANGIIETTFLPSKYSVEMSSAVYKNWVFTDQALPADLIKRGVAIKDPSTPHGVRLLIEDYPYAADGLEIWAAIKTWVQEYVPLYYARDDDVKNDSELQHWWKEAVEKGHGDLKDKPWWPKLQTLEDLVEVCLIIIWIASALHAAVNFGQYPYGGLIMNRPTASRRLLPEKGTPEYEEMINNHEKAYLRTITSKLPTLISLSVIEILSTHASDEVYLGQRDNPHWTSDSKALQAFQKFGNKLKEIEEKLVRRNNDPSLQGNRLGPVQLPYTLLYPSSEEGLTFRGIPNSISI


Columns and labels:
thyroid peroxidase (TPO) = molecular target: T1, thyroid peroxidase (TPO); experiment: TPO assay (guaiacol oxidation, activation kinetics); format: biochemical, Porcine; conditions: n = 9, read-out: AC50 (concentration resulting in 50% activation)
Experimental: (§1) The assay was prepared according to Jomaa et al., with some modifications. Porcine thyroid glands were purchased at a slaughterhouse (Lublin, Poland) and stored at −20 °C until used. The frozen thyroid gland was minced with a fork. The mince was suspended in a buffer containing 0.25 M sucrose, 2 mM tris–HCl, 100 mM KCl, 40 mM NaCl and 10 mM MgCl2 (pH 7.4) and homogenized using Philips homogenizer. The thyroid gland was centrifuged two times at 4000 RPM per 15 min at a temperature + 4 °C. The enzyme protein was then salted out to 60%. The supernatant was stored at − 20 °C until used.
(§2) The assay was used according to Jomaa et al., with some modification. The measurement was made using a plate spectrophotometer (BioTek, Model Epoch2TC, Winooski, VT, USA) in 96–well plates at a wavelength of 470 nm. Absorbance readings were recorded every minute for a total of 3 min at 37 °C. TPO activity is expressed as a change of absorption per minute. All measurements were performed in three replicates. The AC50 (activator concentration) values were calculated at fitted models as the concentration of the tested compound providing 50% of the activation based on a dose-dependent mode of action.

[1] = set-up: method as in PMID 10730826; conditions: humans, FA in its free form, for example from beer; cited from earlier work
[2] = ABTS radical scavenging assay; conditions: 15 min incubation at room temperature, n = 9; read-out: IC50 ABTS radical scavenging ability
Experimental: ABTS radical scavenging activity was determined according to Re et al. with slight modifications using a microplate spectrophotometer (BioTek, Model Epoch2TC, Winooski, VT, USA) after 15 min of incubation at room temperature.

LOX [3] = tested on: LOX; set-up: method as in doi:10.3390/app9030568; conditions: previous studies; cited from earlier work
[4] = molecular target: T2, soybean lipoxygenase type 1-B (LOX); experiment: Inhibition of lipoxygenase activity (LOXI) with linoleic acid as substrate; format: biochemical; conditions: for Mode of Inhibition: Lineweaver-Burk, linoleic acid substrate
Experimental: Measurement was made at a wavelength of 234 nm. One unit of LOX activity was defined as an increase in absorbance of 0.001 per minute at 234 nm. All measurements were performed in four replicates.

LOX [5] = conditions: different concentration than in the presented study; cited from earlier work
[6] = FA perfused as a free pure compound in the rat intestine; cited from earlier work
[7] = blood samples of rabbits; cited from earlier work
[8] = set-up: method as in earlier work; conditions: cited from earlier work
[9] = substrate: COc1ccccc1O; experiment: TPO assay (guaiacol oxidation, activation kinetics); format: biochemical, Porcine; conditions: other: TPO substrate guaiacol, n = 9; pH 7.4
Experimental: as §1, §2

Km ([4]; LOX substrate linoleic acid, read-out: Km without Inhibitor) [µM]	Molecule	AC50 (thyroid peroxidase (TPO)) [µM]	Urinary excretion [1]	IC50 [2] [µM]	Mode of LOX inhibition (LOX [3])	IC50 [4] [µM]	Ki [4] [µM]	Mode of Inhibition [4]	LOX inhibition (LOX [5]) [%]	Bioavailability [6]	Absolute bioavailability [7] [%]	Oral bioavailability [8]	Km [9] [µM]
–	COc1cc(/C=C/C(=O)O)ccc1O [Ferulic acid, ferulic acid]	390 ± 19	19–98%	410 ± 20	competitive	27 ± 1.3	8 ± 0.4	uncompetitive	74.4	about 50%	–	–	–
7 ± 0.3	CCCCC/C=C\C/C=C\CCCCCCCC(=O)O [Linoleic acid, reference compound]	–	–	–	–	–	–	–	–	–	–	–	–
–	COc1cc(C(=O)O)cc(OC)c1O [Syringic acid, syringic acid]	690 ± 34	–	220 ± 11	–	9 ± 0.4	5 ± 0.3	uncompetitive	–	–	86.27	–	–
–	O=C(O)/C=C/c1ccccc1 [trans–cinnamic acid, trans-cinnamic acid]	100 ± 5	–	2120 ± 106	–	9 ± 0.4	9 ± 0.4	uncompetitive	66.6	–	–	low	–
–	thyroid peroxidase (TPO) (Sus scrofa) (protein, The frozen thyroid gland was minced with a fork; from tissue; host or cells: porcine thyroid gland (homogenate, centrifuged, salted out to 60%)) CAGAFFASILRRKDLLGGDTEASGVAGLVEASRLLVDEAIHTTMRRNLRKRGIFSPSQLLSFSKLPEPTSRTASRAAEIMETAVQEVKRRVCRRRDTDQLPTDVLSEELLSTIANLSGCLPHMLPPSCPHTCLANKYRLITGACNNRDHPRWGASNTALARWLPPAYEDGVTEPRGWNPHFLYNGLPLPPVREVTRQVIHVSNEAVTEDGQYSDLLMAWGQYIDHDIAFTPQSTSKAAFAGGADCQLTCENRSPCFPIQLPTNASGAAGATCLPFYRSSAACGSGRQGALVGNLSWAAPRQQMNGLTSFLDASTVYGSSPAQEQRLRNWTSAEGLLRVNTRHRDAGRAFLPFAPPPAPPACAPEPGTPAARAPCFLAGDSRASEVPGLTALHTLWLREHNRLAAAFKALNAHWSADTVYQEARKVVGALHQIVTLRDYVPKILGAEAFGQHVGPYQGYDPAVDPTVSNVFSTAAFRFGHATIHPLVRRLDARFQEHPGSHLPLRAAFFQPWRLLREGGVDPVLRGLLARPAKLQVQDQLMNEELTERLFVLSNSGTLDLASINLQRGRDHGLPGYNEWREFCGLSRLETWADLSAATANGRVADRILGLYQHPDNIDVWLGGLAESFLPGARTGPLFACIIGKQMRALRDGDRFWWENPGVFTEAQRRELSRHSMSRVICDNSGLSHVPLDAFRVGQWPQEFEPCASIQGMDLGAWREAPPSGDACGFPDPVEDGGFLLCEERGQRVLVFSCRHGFRLRGPAQITCTPRGWDSPPPLCKDINECEDETDPPCHASARCKNTKGGVLCECSDPLVLGEDGRTCVDAGRLPRASVVSIALGAVLVCGLAGLAWTVVCRWTHADARPLLPVGEGEGDGKSPSLPLPGCGNRRDVGAAPALEVEQDLSCGSRGLCE	–	–	–	–	–	–	–	–	–	–	–	60 ± 3
